One assay concerns the target T1, B-Raf kinase (Homo sapiens, UniProt P15056).
T1 construct: purchased Upstate Biotechnology
The assay is described as follows: B-Raf kinase assay ([33P] incorporation into MEK1 K97R). The following applies: recombinant B-Raf, 8 μM ATP, 30 min, 30° C.; read-out: IC50 ranking against B-Raf kinase. Format: biochemical. Here is the method:
Inhibition of kinase activity by a test compound disclosed herein was estimated by quantifying the amount of [^33P] incorporation of a substrate in the presence of the test compound. Standard assay conditions were 5 ng of recombinant B-Raf kinase (Upstate Biotechnology) with 500 ng MEK1(Map-erk kinase; K97R) in the assay buffer (8 μM ATP, 0.5 μCi [^33P]ATP (specific activity 3000 Ci/mmol, PerkinElmer), 50 mM Tris/HCl (pH 7.5), and 1 mM EGTA, 1 mM Na3VO4, 1% 2-mercaptoethanol, 0.1% Brij 35, and 0.2 mg/ml BSA) in a final volume of 25 μL. Reactions were incubated at 30° C. for 30 min and stopped by adding 3% phosphoric acid, harvested onto a 96-well GF/B UniFilter (PerkinElmer) using a unifilter harvester (PerkinElmer), and counted with a TopCount microplate scintillation counter (PerkinElmer). The IC50 values of inhibitors were determined after carrying out assays at 3-fold serially diluted concentrations of each compound in duplication. The results were analyzed using linear regression software (GraphPad Prism 4; GraphPad Software Inc.).

The next assay deals with T2, B-Raf^V600E kinase (Homo sapiens, UniProt P15056, V600E).
T2 construct: purchased Upstate Biotechnology
The assay is described as follows: B-Raf V600E kinase assay ([33P] incorporation into MEK1 K97R). Format: biochemical. The note with it: recombinant B-Raf^V600E, 8 μM ATP, 30 min, 30° C.; read-out: IC50 ranking against B-Raf^V600E kinase. The protocol: (§1) Inhibition of kinase activity by a test compound disclosed herein was estimated by quantifying the amount of [^33P] incorporation of a substrate in the presence of the test compound. Standard assay conditions were 5 ng of recombinant B-Raf^V600E kinase (Upstate Biotechnology) with 500 ng MEK1 (K97R) in assay buffer (8 μM ATP, 0.5 μCi [^33P]ATP (specific activity 3000 Ci/mmol, PerkinElmer), 50 mM Tris/HCl (pH 7.5), and 1 mM EGTA, 1 mM Na3VO4, 1% 2-mercaptoethanol, 0.1% Brij 35, and 0.2 mg/ml BSA), and the test compound (diluted with 4% DMSO) or DMSO alone (as a control) in a final volume of 25 μL. Reactions were incubated at 30° C. for 30 min and stopped by adding 3% phosphoric acid, harvested onto a 96-well GF/B UniFilter (PerkinElmer) using a unifilter harvester (PerkinElmer), and counted with a TopCount microplate scintillation counter (PerkinElmer). The IC50 values of inhibitors were determined after carrying out assays at 3-fold serially diluted concentrations of each compound in duplication. The results were analyzed using linear regression software (GraphPad Prism 4; GraphPad Software Inc.).

A further assay addresses T3, C-Raf kinase (Homo sapiens, UniProt P04049).
T3 construct: purchased Upstate Biotechnology
The assay is described as follows: C-Raf kinase assay ([33P] incorporation into MEK1 K97R). Format: biochemical. The following applies: recombinant C-Raf, 8 μM ATP, 30 min, 30° C.; read-out: IC50 ranking against C-Raf kinase. Here is the method:
as §1, with “were 2” for “were 5”, “recombinant C-Raf” for “recombinant B-Raf^V600E”, “ng MEK1(K97R)” for “ng MEK1 (K97R)”

In assay [1] the test system is B-Raf^V600E mutant A375 melanoma cell. Description: Cell proliferation assay (CELLTITER 96), A375. The note with it: Homo sapiens, A-375; A375, 72 hours; read-out: Cytotoxicity (IC50 Ranking) A375 (B-Raf^V600E). Format: cell-based. Here is the method: (§2) Inhibition of cell growth by compounds was measured using CELLTITER 96® assay. The cytotoxicity of compounds was evaluated in B-Raf^V600E mutant A375 melanoma cell, B-Raf^V600E mutant COLO205 colon cancer cell, and SK-MEL-2 melanoma cell with wild type B-Raf (B-Raf^wt) and NRASQ^Q61R mutation. A375 and COLO205 cell line were cultured in DMEM containing 10% FCS and incubated at 37° C. in 5% CO2 atmosphere. SK-MEL-2 cell line was cultured in MEM containing 10% FCS and incubated at 37° C. in 5% CO2 atmosphere. A375, COLO205 and SK-MEL-2 cell were seeded into 96-well plates at 2000, 2000, and 4000 cells/well, respectively, and allowed to adhere for overnight. Then, these seeded cells were treated with increasing concentrations of the test compounds and incubated for another 72 hours. At the end of the incubation, CELLTITER 96® Aqueous One Solution Reagent (Promega) was added and incubated for 4 hours. Cell viability was determined by measuring absorbance at 490 nm using EMAX® microplate reader (Molecular Devices).
(§3) The 50% inhibitory concentration (IC50) value was calculated by plotting the percentage of growth inhibition against the concentration of compound, using GraphPad Prism5 software for curve fitting.

Assay [2] concerns B-Raf^V600E mutant COLO205 colon cancer cell. The assay is described as follows: Cell proliferation assay (CELLTITER 96), COLO205. It counts as cell-based. The note with it: Homo sapiens, COLO 205; COLO205, 72 hours; read-out: Cytotoxicity (IC50 Ranking) COLO205 (B-Raf^V600E). Here is the method: as §2, §3
Assay [3] has as its system SK-MEL-2 melanoma cell with wild type B-Raf (B-Raf^wt) and NRAS^Q61R mutation. The assay is described as follows: Cell proliferation assay (CELLTITER 96), SK-MEL-2. It counts as cell-based. The note with it: Homo sapiens, SK-MEL-2, 72 hours, read-out: Cytotoxicity (IC50 Ranking) SK-MEL-2 (NRAS^Q61R, B-Raf^wt). The protocol: as §2, §3

Structures are written as SMILES. Like-named read-outs stand apart in the source and are kept apart here.

T3 sequence (P04049 whole entry): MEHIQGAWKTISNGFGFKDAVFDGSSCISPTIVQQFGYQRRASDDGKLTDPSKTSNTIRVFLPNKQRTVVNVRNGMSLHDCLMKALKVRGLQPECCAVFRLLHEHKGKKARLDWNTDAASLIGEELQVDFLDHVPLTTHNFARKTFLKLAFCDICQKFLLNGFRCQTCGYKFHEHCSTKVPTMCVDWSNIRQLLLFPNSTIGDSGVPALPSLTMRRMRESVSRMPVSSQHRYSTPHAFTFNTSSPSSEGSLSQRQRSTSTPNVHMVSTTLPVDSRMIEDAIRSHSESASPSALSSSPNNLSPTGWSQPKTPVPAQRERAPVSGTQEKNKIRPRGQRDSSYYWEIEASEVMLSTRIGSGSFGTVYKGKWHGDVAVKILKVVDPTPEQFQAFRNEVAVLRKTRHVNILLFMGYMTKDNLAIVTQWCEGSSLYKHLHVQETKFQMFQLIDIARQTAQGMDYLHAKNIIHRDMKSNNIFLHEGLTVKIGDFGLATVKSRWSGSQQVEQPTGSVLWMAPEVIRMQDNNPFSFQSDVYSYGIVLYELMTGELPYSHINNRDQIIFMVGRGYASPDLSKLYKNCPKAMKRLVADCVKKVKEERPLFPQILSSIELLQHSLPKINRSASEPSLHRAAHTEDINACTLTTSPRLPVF
T1 sequence (P15056 whole entry): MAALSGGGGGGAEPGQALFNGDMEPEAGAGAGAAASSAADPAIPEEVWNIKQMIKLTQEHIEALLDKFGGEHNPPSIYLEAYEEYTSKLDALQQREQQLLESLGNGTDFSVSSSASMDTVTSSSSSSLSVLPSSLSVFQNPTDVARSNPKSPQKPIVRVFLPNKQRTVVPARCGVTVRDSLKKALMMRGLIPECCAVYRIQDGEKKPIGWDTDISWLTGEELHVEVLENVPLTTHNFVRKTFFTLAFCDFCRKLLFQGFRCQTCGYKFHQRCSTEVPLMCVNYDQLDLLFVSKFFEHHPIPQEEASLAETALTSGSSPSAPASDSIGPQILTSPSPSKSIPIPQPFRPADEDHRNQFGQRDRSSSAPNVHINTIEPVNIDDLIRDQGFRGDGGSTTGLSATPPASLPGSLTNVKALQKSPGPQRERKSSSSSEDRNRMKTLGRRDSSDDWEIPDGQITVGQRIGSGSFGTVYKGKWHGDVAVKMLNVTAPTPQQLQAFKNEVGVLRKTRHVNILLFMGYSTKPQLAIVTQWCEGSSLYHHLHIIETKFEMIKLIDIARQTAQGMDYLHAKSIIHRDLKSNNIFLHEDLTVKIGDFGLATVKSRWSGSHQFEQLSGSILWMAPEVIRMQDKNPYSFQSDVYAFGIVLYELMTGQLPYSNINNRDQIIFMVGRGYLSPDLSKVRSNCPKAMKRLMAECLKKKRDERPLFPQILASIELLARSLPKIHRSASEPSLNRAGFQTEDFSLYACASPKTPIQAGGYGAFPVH
T2 sequence (P15056 whole entry V600E): as the sequence (P15056 whole entry) above, with V600E counted along it

On to `CCOc1cnc2ccc(Nc3cc(NS(=O)(=O)c4ccccc4)ccc3F)c(C#N)c2n1` [compound 24, N-(3-(5-cyano-3-ethoxyquinoxalin-6-ylamino)-4-fluorophenyl)benzenesulfonamide], for which the concentration for half-maximal inhibition (IC50) at B-Raf kinase was under 300 nM; at B-Raf^V600E kinase, under 300 nM; at C-Raf kinase it was under 300 nM; in assay [1] it was 300 to 1000 nM; in assay [2], under 300 nM; in assay [3] (given as bound), over 10 µM.

For the compound `N#Cc1c(Nc2cc(NS(=O)(=O)c3ccccc3)ccc2F)ccc2ncc(N3CCOCC3)nc12` [compound 25, N-(3-(5-cyano-3-morpholinoquinoxalin-6-ylamino)-4-fluorophenyl)benzenesulfonamide], the half-maximal inhibitory concentration (IC50) at B-Raf kinase is under 300 nM; on B-Raf^V600E kinase, under 300 nM; on C-Raf kinase, under 300 nM; in assay [1], 300 to 1000 nM; in assay [2], under 300 nM; in assay [3] (given as bound), over 10 µM.

Take `CS(=O)(=O)Nc1ccc(F)c(Nc2ccc3ncc(N4CCOCC4)nc3c2C#N)c1` [compound 26, N-(3-(5-cyano-3-morpholinoquinoxalin-6-ylamino)-4-fluorophenyl)methanesulfonamide]: the IC50 at B-Raf kinase is 1000 to 10000 nM; at B-Raf^V600E kinase, 1000 to 10000 nM; on C-Raf kinase it was 1000 to 10000 nM; in assay [1], 1000 to 10000 nM; in assay [2] it was 1000 to 10000 nM; in assay [3] (given as bound) it was over 10 µM.

Consider `CCOc1cnc2ccc(Nc3cc(NS(C)(=O)=O)ccc3F)c(C#N)c2n1` [compound 27, N-(3-(5-cyano-3-ethoxyquinoxalin-6-ylamino)-4-fluorophenyl)methanesulfonamide], for which the IC50 on B-Raf kinase is 1000 to 10000 nM; on B-Raf^V600E kinase, 1000 to 10000 nM; at C-Raf kinase it was 1000 to 10000 nM; in assay [1], 1000 to 10000 nM; in assay [2] it was 300 to 1000 nM; in assay [3] (given as bound), over 10 µM.

For the compound `CCCS(=O)(=O)Nc1ccc(F)c(Nc2ccc3ncc(N(C)C)nc3c2C#N)c1` [compound 28, N-(3-(5-cyano-3-(dimethylamino)quinoxalin-6-ylamino)-4-fluorophenyl)propane-1-sulfonamide], the 50% inhibitory concentration (IC50) at B-Raf kinase was 300 to 1000 nM; on B-Raf^V600E kinase, 300 to 1000 nM; on C-Raf kinase it was under 300 nM; in assay [1], 300 to 1000 nM; in assay [2], under 300 nM; in assay [3] (given as bound), over 10 µM.

With `CCCS(=O)(=O)Nc1ccc(F)c(Nc2ccc3ncc(OC)nc3c2C=O)c1F` [compound 29, N-(2,4-difluoro-3-(5-formyl-3-methoxyquinoxalin-6-ylamino)phenyl)propane-1-sulfonamide], the IC50 at B-Raf kinase is under 300 nM; on B-Raf^V600E kinase it was under 300 nM; on C-Raf kinase it was under 300 nM; in assay [1], under 300 nM; in assay [2] it was under 300 nM; in assay [3] (given as bound) it was over 10 µM.

With `CCCS(=O)(=O)Nc1ccc(F)c(Nc2ccc3ncc(OC)nc3c2C(=O)O)c1F` [compound 30, 6-(2,6-difluoro-3-(propylsulfonamido)phenylamino)-3-methoxyquinoxaline-5-carboxylic acid], the IC50 at B-Raf kinase is 300 to 1000 nM; at B-Raf^V600E kinase, 300 to 1000 nM; on C-Raf kinase, 300 to 1000 nM; in assay [1] it was 1000 to 10000 nM; in assay [2], 1000 to 10000 nM; in assay [3] (given as bound), over 10 µM.

As to `CCCS(=O)(=O)Nc1ccc(F)c(Nc2ccc3ncc(OC)nc3c2C(=O)OC)c1F` [compound 31, methyl 6-(2,6-difluoro-3-(propylsulfonamido)phenylamino)-3-methoxyquinoxaline-5-carboxylate], the IC50 on B-Raf kinase is under 300 nM; at B-Raf^V600E kinase, under 300 nM; on C-Raf kinase, under 300 nM; in assay [1], 300 to 1000 nM; in assay [2] it was 300 to 1000 nM; in assay [3] (given as bound), over 10 µM.

In the case of `N#Cc1c(Nc2c(F)ccc(NS(=O)(=O)CCCF)c2F)ccc2ncc(N3CCOCC3)nc12` [compound 33, N-(3-(5-cyano-3-morpholinoquinoxalin-6-ylamino)-2,4-difluorophenyl)-3-fluoropropane-1-sulfonamide], the concentration for half-maximal inhibition (IC50) was under 300 nM on B-Raf kinase; under 300 nM on B-Raf^V600E kinase; under 300 nM at C-Raf kinase; under 300 nM in assay [1]; under 300 nM in assay [2]; 1 to 10 µM in assay [3] (given as class symbol).

For `CCOc1cnc2ccc(Nc3c(F)ccc(NS(=O)(=O)CCCF)c3F)c(C#N)c2n1` [compound 34, N-(3-(5-cyano-3-ethoxyquinoxalin-6-ylamino)-2,4-difluorophenyl)-3-fluoropropane-1-sulfonamide], the IC50 on B-Raf kinase was under 300 nM; at B-Raf^V600E kinase it was under 300 nM; at C-Raf kinase, under 300 nM; in assay [1], under 300 nM; in assay [2], under 300 nM; in assay [3] (given as bound), over 10 µM.

Regarding `COc1cnc2ccc(Nc3cc(NS(=O)(=O)c4ccccc4)ccc3F)c(C#N)c2n1` [compound 35, N-(3-(5-cyano-3-methoxyquinoxalin-6-ylamino)-4-fluorophenyl)benzenesulfonamide], the half-maximal inhibitory concentration (IC50) on B-Raf kinase is under 300 nM; on B-Raf^V600E kinase, under 300 nM; at C-Raf kinase, under 300 nM; in assay [1] it was under 300 nM; in assay [2] it was under 300 nM; in assay [3] (given as bound) it was over 10 µM.

Turning to `CCCS(=O)(=O)Nc1ccc(F)c(Nc2ccc3ncc(OCC)nc3c2C#N)c1` [compound 36, N-(3-(5-cyano-3-ethoxyquinoxalin-6-ylamino)-4-fluorophenyl)propane-1-sulfonamide], the half-inhibitory concentration (IC50) on B-Raf kinase was under 300 nM; on B-Raf^V600E kinase, under 300 nM; on C-Raf kinase, under 300 nM; in assay [1] it was under 300 nM; in assay [2] it was under 300 nM; in assay [3] (given as bound), over 10 µM.

The term IC50 denotes the point on the concentration scale where inhibition reaches its midpoint.

Source of the values: patent US10745360B2, “Quinoxaline compounds, method for preparing the same and use thereof” (Development Center for Biotechnology, priority 2014, dated 2020).
